Source: ChEMBL document CHEMBL5291721, “A preclinical secondary pharmacology resource illuminates target-adverse drug reaction associations of marketed drugs” (Nat Commun, 2023)

Key:
[1] = biological target: Beta-1 adrenergic receptor (Homo sapiens, UniProt P08588); format: functional, cell-based
Histamine H1 receptor = Histamine H1 receptor (Homo sapiens, UniProt P35367); format: functional, cell-based
[2] = biological target: 5-hydroxytryptamine receptor 7 (Homo sapiens, UniProt P34969)
Substance-P receptor = Substance-P receptor (Homo sapiens, UniProt P25103)
[3] = biological target: T1, Endothelin receptor type B (Homo sapiens, UniProt P24530)
T1 sequence (P24530 whole entry): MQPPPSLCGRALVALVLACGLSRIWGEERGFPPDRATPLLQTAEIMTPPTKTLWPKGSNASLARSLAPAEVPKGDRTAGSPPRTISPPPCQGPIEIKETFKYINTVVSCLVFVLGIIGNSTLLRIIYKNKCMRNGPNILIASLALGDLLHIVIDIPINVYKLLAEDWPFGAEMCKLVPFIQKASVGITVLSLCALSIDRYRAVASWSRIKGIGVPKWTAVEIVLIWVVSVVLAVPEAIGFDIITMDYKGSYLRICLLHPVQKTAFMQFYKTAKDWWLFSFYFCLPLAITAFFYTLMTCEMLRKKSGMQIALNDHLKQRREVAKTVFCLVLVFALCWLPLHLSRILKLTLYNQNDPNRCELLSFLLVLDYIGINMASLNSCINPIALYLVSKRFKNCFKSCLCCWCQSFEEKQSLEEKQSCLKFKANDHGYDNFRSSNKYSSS

[4] = biological target: T2, Muscarinic acetylcholine receptor M2 (Homo sapiens, UniProt P08172)
T2 sequence (P08172 whole entry): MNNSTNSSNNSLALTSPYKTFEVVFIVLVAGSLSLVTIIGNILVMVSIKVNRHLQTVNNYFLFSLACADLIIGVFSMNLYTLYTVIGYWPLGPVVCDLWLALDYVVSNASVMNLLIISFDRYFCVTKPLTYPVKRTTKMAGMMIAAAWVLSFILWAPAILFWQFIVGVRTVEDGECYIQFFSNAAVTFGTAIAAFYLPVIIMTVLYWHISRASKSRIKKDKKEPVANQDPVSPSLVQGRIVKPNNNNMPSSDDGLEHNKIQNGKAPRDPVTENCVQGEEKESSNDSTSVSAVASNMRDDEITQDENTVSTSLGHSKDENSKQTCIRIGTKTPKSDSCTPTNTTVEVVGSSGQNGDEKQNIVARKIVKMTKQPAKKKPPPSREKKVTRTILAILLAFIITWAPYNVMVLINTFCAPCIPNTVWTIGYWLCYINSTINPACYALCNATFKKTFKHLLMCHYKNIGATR

[5] = biological target: 5-hydroxytryptamine receptor 6 (Homo sapiens, UniProt P50406)
Cannabinoid receptor 1 = Cannabinoid receptor 1 (Homo sapiens, UniProt P21554); format: functional
[6] = biological target: T3, Gastric inhibitory polypeptide receptor (Homo sapiens, UniProt P48546)
T3 sequence (P48546 whole entry): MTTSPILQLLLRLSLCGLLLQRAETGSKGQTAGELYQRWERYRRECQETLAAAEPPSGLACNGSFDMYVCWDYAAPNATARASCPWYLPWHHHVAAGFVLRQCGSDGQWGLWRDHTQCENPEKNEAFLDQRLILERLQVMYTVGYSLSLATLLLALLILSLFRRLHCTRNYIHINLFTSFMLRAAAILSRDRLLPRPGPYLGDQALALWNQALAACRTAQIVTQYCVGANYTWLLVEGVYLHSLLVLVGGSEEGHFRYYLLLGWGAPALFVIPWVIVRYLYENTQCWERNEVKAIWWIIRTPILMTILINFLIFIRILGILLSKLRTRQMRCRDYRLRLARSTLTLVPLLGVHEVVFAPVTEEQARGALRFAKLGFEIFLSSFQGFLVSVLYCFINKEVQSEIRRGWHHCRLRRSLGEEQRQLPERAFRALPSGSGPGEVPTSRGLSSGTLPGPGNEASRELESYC

[7] = biological target: Gamma-aminobutyric acid receptor subunit alpha-1/alpha-2/beta-2/gamma-2 (Homo sapiens, UniProt P14867+P18507+P47869+P47870); format: functional, cell-based
[8] = biological target: Sodium channel protein type 5 subunit alpha (Homo sapiens, UniProt Q14524); format: functional, cell-based
Further: assay procedure not described here.

Histamine H1 receptor, sequence (P35367 whole entry): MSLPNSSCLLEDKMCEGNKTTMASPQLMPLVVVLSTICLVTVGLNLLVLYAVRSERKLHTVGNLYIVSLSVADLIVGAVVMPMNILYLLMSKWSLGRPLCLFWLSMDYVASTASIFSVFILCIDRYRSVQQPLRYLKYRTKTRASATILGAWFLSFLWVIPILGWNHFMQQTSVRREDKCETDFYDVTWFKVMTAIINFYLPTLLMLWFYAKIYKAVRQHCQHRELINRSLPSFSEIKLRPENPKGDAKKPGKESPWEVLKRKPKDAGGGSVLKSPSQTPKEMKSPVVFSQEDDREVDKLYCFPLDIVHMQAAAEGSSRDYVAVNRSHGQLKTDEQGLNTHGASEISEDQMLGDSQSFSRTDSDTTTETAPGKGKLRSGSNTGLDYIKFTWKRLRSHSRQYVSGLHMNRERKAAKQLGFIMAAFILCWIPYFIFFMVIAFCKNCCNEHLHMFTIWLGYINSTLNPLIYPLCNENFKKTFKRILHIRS
Beta-1 adrenergic receptor, sequence (P08588 whole entry): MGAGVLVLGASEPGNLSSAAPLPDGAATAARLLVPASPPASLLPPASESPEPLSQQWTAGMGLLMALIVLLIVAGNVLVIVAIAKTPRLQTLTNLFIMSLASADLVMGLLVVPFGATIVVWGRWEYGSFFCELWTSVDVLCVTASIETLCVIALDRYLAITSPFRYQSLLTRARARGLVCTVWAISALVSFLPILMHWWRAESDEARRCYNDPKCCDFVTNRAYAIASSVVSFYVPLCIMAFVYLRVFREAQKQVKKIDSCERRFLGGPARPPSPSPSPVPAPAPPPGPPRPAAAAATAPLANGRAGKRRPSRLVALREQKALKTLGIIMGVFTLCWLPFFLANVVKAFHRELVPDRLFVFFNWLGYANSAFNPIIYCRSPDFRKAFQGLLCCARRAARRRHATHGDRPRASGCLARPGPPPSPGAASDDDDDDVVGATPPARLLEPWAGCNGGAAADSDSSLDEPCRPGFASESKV
Gamma-aminobutyric acid receptor subunit alpha-1/alpha-2/beta-2/gamma-2, sequence (P14867 whole entry): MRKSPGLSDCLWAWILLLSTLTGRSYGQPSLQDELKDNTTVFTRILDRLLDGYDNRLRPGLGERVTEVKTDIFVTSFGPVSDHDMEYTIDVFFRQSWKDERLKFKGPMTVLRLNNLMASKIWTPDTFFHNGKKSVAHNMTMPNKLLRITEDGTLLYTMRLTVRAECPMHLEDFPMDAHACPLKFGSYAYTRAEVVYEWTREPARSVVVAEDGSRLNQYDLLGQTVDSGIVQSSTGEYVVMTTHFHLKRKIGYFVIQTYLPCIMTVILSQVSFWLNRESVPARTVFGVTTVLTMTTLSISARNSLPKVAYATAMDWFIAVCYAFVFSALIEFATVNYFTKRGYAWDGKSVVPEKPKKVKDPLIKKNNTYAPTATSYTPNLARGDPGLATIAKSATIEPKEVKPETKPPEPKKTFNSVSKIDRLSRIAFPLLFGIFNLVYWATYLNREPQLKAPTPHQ
Gamma-aminobutyric acid receptor subunit alpha-1/alpha-2/beta-2/gamma-2, sequence (P47870 whole entry): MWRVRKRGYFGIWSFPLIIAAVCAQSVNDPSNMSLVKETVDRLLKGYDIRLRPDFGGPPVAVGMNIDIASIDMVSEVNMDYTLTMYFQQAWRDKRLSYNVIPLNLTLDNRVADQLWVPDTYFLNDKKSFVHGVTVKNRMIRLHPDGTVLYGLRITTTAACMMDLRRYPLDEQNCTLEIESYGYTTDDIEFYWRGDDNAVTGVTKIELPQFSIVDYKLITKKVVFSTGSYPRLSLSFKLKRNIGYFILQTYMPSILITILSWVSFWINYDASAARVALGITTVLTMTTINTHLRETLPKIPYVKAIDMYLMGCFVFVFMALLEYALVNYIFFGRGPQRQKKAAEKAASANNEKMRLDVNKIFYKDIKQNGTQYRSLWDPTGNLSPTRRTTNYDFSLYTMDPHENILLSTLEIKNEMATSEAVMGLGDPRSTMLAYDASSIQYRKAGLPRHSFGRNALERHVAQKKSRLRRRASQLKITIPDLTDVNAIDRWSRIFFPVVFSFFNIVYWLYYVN
Gamma-aminobutyric acid receptor subunit alpha-1/alpha-2/beta-2/gamma-2, sequence (P18507 whole entry): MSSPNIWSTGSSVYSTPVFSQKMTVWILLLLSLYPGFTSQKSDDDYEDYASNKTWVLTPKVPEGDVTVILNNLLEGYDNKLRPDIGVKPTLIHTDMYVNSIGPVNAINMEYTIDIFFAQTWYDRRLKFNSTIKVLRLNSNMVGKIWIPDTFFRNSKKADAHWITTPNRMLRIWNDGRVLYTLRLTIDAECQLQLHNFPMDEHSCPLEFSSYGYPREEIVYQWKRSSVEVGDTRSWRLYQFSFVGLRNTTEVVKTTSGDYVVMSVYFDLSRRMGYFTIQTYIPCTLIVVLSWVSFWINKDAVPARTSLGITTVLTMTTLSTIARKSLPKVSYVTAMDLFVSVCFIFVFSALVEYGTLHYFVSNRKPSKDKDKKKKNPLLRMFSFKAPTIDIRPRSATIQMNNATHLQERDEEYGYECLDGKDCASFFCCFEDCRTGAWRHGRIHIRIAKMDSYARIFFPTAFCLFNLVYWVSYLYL
Gamma-aminobutyric acid receptor subunit alpha-1/alpha-2/beta-2/gamma-2, sequence (P47869 whole entry): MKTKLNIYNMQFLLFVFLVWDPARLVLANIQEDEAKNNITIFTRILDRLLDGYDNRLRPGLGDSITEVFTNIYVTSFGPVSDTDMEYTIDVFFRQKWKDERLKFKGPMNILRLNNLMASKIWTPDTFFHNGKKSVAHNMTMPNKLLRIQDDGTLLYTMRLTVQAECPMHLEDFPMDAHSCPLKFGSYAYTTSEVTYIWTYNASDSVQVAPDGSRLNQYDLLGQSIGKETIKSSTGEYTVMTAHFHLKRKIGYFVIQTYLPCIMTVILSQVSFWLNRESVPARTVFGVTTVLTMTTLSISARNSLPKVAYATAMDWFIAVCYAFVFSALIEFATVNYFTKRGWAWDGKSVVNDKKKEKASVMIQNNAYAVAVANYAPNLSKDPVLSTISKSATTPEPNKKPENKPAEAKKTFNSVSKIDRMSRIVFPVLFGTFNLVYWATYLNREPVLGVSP
Cannabinoid receptor 1, sequence (P21554 whole entry): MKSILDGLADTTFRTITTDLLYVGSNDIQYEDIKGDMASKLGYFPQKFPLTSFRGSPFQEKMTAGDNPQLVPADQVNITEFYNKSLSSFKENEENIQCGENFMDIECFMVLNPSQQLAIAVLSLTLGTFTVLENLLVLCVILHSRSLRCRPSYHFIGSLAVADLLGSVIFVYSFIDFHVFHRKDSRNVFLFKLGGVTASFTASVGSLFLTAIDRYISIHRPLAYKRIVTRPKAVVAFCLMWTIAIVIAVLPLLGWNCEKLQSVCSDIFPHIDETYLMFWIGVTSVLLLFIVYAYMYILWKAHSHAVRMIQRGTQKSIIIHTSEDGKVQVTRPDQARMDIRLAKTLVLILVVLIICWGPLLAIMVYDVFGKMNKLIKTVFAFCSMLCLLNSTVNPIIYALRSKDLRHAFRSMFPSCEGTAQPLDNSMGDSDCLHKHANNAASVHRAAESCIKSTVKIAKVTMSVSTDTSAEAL
Substance-P receptor, sequence (P25103 whole entry): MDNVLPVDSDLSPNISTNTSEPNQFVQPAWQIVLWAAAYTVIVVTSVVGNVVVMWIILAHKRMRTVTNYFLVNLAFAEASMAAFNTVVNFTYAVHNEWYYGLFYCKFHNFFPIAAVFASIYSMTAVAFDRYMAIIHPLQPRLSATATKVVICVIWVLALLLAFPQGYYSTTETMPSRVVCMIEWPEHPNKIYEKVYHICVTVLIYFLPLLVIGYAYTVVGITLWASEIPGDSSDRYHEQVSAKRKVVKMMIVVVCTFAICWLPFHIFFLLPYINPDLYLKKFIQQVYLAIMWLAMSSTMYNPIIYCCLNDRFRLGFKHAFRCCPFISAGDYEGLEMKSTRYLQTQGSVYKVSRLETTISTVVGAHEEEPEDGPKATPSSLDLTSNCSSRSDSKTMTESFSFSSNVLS
5-hydroxytryptamine receptor 7, sequence (P34969 whole entry): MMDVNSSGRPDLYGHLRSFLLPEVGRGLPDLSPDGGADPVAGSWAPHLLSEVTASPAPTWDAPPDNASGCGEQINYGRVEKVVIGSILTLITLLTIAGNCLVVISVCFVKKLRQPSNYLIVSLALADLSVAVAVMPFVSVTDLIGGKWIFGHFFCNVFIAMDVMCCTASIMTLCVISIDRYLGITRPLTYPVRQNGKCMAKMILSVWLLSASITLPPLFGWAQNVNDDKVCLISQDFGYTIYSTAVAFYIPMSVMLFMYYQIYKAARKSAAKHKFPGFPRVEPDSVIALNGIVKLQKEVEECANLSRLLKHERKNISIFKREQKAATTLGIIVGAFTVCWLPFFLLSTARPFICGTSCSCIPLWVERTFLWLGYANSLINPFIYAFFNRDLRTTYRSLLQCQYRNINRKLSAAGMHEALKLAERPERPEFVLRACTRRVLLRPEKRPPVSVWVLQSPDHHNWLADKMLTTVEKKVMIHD
5-hydroxytryptamine receptor 6, sequence (P50406 whole entry): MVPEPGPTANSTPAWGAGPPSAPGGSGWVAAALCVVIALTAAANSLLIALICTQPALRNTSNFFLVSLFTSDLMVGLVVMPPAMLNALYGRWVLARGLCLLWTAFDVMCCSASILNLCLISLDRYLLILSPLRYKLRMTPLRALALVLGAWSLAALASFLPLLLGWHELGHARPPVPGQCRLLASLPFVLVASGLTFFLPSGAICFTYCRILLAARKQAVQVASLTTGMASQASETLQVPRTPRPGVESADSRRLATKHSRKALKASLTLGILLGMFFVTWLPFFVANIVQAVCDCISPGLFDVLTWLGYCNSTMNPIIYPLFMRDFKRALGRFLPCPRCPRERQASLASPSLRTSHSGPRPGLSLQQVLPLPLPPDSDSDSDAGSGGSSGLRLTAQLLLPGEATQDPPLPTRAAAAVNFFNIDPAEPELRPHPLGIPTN

In the case of CCOC(=O)[N-]c1cn(N2CCOCC2)n[o+]1 [MOLSIDOMINE], the AC50 [1] is reported as > 30 µM.
For CCC(C(=O)O)c1ccc(N2Cc3ccccc3C2=O)cc1 (stereo unspecified) [INDOBUFEN], the AC50 [1] was > 30 µM.
Cn1c(=O)c2c(ncn2CC2OCCO2)n(C)c1=O [DOXOFYLLINE] was tested, and the AC50 [1] was > 30 µM.
With CC[C@@H]1C(=O)OC[C@@H]1Cc1cncn1C [PILOCARPINE] the AC50 (Histamine H1 receptor) was > 30 µM.
For CCCCc1ncc(/C=C(\Cc2cccs2)C(=O)O)n1Cc1ccc(C(=O)O)cc1 [EPROSARTAN], the AC50 [2] was > 10 µM, the AC50 (Substance-P receptor) was > 10 µM and the AC50 [3] was > 30 µM. For the same compound, the AC50 [4] was > 10 µM, the AC50 [5] was > 10 µM and the AC50 (Cannabinoid receptor 1) was > 10 µM. The AC50 [6] was > 30 µM and the AC50 (Histamine H1 receptor) was > 30 µM.
With COc1cc2c(N)nc(N3CCN(C(=O)OCC(C)(C)O)CC3)nc2c(OC)c1OC [TRIMAZOSIN] the AC50 [1] was > 30 µM.
With CCC1(CC)C(=O)NCC(C)C1=O (stereo unspecified) [METHYPRYLON] the AC50 [7] was > 30 µM and the AC50 (Histamine H1 receptor) was > 30 µM.
For CCN(CC)C(=O)N[C@H]1C[C@@H]2c3cccc4[nH]cc(c34)C[C@H]2N(C)C1 [TERGURIDE], the AC50 [7] was > 30 µM and the AC50 (Histamine H1 receptor) was > 30 µM.
For NCC(=O)CCC(=O)O [AMINOLEVULINIC ACID], the AC50 [7] was > 30 µM and the AC50 (Histamine H1 receptor) was > 30 µM.
For CC(C)OC(=O)CCC/C=C\C[C@@H]1[C@@H](CC[C@@H](O)CCc2ccccc2)[C@H](O)C[C@@H]1O [LATANOPROST], the AC50 [7] was > 30 µM and the AC50 (Histamine H1 receptor) was > 30 µM.
For COc1ccc2c3c1O[C@H]1[C@@H](O)C=C[C@H]4[C@@H](C2)N(C)CC[C@@]341 [CODEINE], the AC50 [2] was > 10 µM, the AC50 (Substance-P receptor) was > 10 µM and the AC50 [3] was > 30 µM. For the same compound, the AC50 [8] was > 30 µM, the AC50 [4] was > 10 µM and the AC50 [5] was > 10 µM. For the same compound, the AC50 (Cannabinoid receptor 1) was > 10 µM and the AC50 [6] was > 30 µM.
For CC(C)C(=O)c1c(C(C)C)nn2ccccc12 [IBUDILAST], the AC50 [1] was > 30 µM.
O=C(NCCNCC(O)COc1ccc(O)cc1)N1CCOCC1 (stereo unspecified) [XAMOTEROL] was tested, and the AC50 [7] was > 30 µM and the AC50 (Histamine H1 receptor) was > 30 µM.
With COc1ccc(CCN(C)CCCC(C#N)(c2cc(OC)c(OC)c(OC)c2)C(C)C)cc1OC (stereo unspecified) [GALLOPAMIL] the AC50 [1] was > 30 µM.
CN1CCC(=C2c3ccccc3CCc3sccc32)CC1 [PIZOTYLINE] was tested, and the AC50 [4] was 0.059 µM, the AC50 [7] was > 30 µM and the AC50 (Histamine H1 receptor) was > 30 µM.
